Assay results published in US6677466B1, “Method for stabilizing hydrogen peroxide” (DSM Fine Chemicals Austria NFG GmbH & Co KG, priority 1999, dated 2004).

Assay: O2 evolution from [Mn2O3{Me3tacn}2](PF6)2-catalysed decomposition of H2O2 with stabilizer
Type: physicochemical
Protocol: A 50% strength aqueous solution of H2O2 (304 mg; 4.46 mmol) was added to 454 mg (4.46 mmol) of methyl pyruvate and to 535 mg (4.46 mmol) of glyoxylic methyl ester methyl hemiacetal, respectively. In the case of methyl pyruvate, a marked evolution of heat was discovered during the addition. After one hour, the H2O2/α-keto ester mixture was mixed with 1 ml of solvent and added to a suspension of 1.0 mg of [Mn2O3{Me3tacn}2](PF6)2 catalyst in 4 ml of solvent. The suspension was introduced into a 50 ml flask which was maintained at room temperature in a water bath. As a result of this addition, in cases where undissolved catalyst was still present, the catalyst dissolved completely.
As a comparison, a suspension of 1.0 mg of [Mn2O3{Me3tacn}2](PF6)2 catalyst in 4 ml of solvent was combined with a 50% strength aqueous solution of H2O2 (304 mg; 4.46 mmol) and 1 ml of solvent without stabilizer.
The amount of oxygen which was evolved from the decomposition of the hydrogen peroxide was determined as a function of time using a Brooks meter, which permitted measurement of the gas flow and the total amount of evolved gas.

## COC(=O)C(C)=O [methyl pyruvate]
solv. acetic acid, t 1 min
  O2 evolution V(O2) (Vmax(O2)*100%): 0%
solv. acetic acid, t 4 min
  O2 evolution V(O2) (Vmax(O2)*100%): 3%
solv. acetic acid, t 5 min
  O2 evolution V(O2) (Vmax(O2)*100%): 8%
solv. acetic acid, t 10 min
  O2 evolution V(O2) (Vmax(O2)*100%): 20%
solv. acetic acid, t 15 min
  O2 evolution V(O2) (Vmax(O2)*100%): 24%
solv. acetic acid, t 20 min
  O2 evolution V(O2) (Vmax(O2)*100%): 24%
solv. acetic acid, t 25 min
  O2 evolution V(O2) (Vmax(O2)*100%): 24%
solv. acetic acid, t 30 min
  O2 evolution V(O2) (Vmax(O2)*100%): 24%
solv. acetic acid, t 35 min
  O2 evolution V(O2) (Vmax(O2)*100%): 24%
solv. acetic acid, t 50 min
  O2 evolution V(O2) (Vmax(O2)*100%): 24%
solv. acetic acid, t 60 min
  O2 evolution V(O2) (Vmax(O2)*100%): 24%
solv. acetic acid, t 70 min
  O2 evolution V(O2) (Vmax(O2)*100%): 24%
solv. acetic acid, t 80 min
  O2 evolution V(O2) (Vmax(O2)*100%): 24%
solv. acetone, t 1 min
  O2 evolution V(O2) (Vmax(O2)*100%): 0%
solv. acetone, t 4 min
  O2 evolution V(O2) (Vmax(O2)*100%): 0%
solv. acetone, t 5 min
  O2 evolution V(O2) (Vmax(O2)*100%): 0%
solv. acetone, t 10 min
  O2 evolution V(O2) (Vmax(O2)*100%): 0%
solv. acetone, t 15 min
  O2 evolution V(O2) (Vmax(O2)*100%): 0%
solv. acetone, t 20 min
  O2 evolution V(O2) (Vmax(O2)*100%): 0%
solv. acetone, t 25 min
  O2 evolution V(O2) (Vmax(O2)*100%): 0%
solv. acetone, t 30 min
  O2 evolution V(O2) (Vmax(O2)*100%): 0%
solv. acetone, t 35 min
  O2 evolution V(O2) (Vmax(O2)*100%): 0%
solv. acetone, t 50 min
  O2 evolution V(O2) (Vmax(O2)*100%): 6%
solv. acetone, t 60 min
  O2 evolution V(O2) (Vmax(O2)*100%): 12%
solv. acetone, t 70 min
  O2 evolution V(O2) (Vmax(O2)*100%): 20%
solv. acetone, t 80 min
  O2 evolution V(O2) (Vmax(O2)*100%): 28%
solv. acetonitrile, t 1 min
  O2 evolution V(O2) (Vmax(O2)*100%): 0%
solv. acetonitrile, t 4 min
  O2 evolution V(O2) (Vmax(O2)*100%): 0%
solv. acetonitrile, t 5 min
  O2 evolution V(O2) (Vmax(O2)*100%): 0%
solv. acetonitrile, t 10 min
  O2 evolution V(O2) (Vmax(O2)*100%): 3%
solv. acetonitrile, t 15 min
  O2 evolution V(O2) (Vmax(O2)*100%): 9%
solv. acetonitrile, t 20 min
  O2 evolution V(O2) (Vmax(O2)*100%): 18%
solv. acetonitrile, t 25 min
  O2 evolution V(O2) (Vmax(O2)*100%): 25%
solv. acetonitrile, t 30 min
  O2 evolution V(O2) (Vmax(O2)*100%): 30%
solv. acetonitrile, t 35 min
  O2 evolution V(O2) (Vmax(O2)*100%): 35%
solv. acetonitrile, t 50 min
  O2 evolution V(O2) (Vmax(O2)*100%): 38%
solv. acetonitrile, t 60 min
  O2 evolution V(O2) (Vmax(O2)*100%): 38%
solv. acetonitrile, t 70 min
  O2 evolution V(O2) (Vmax(O2)*100%): 38%
solv. acetonitrile, t 80 min
  O2 evolution V(O2) (Vmax(O2)*100%): 38%
solv. ethyl acetate, t 1 min
  O2 evolution V(O2) (Vmax(O2)*100%): 0%
solv. ethyl acetate, t 4 min
  O2 evolution V(O2) (Vmax(O2)*100%): 0%
solv. ethyl acetate, t 5 min
  O2 evolution V(O2) (Vmax(O2)*100%): 0%
solv. ethyl acetate, t 10 min
  O2 evolution V(O2) (Vmax(O2)*100%): 6%
solv. ethyl acetate, t 15 min
  O2 evolution V(O2) (Vmax(O2)*100%): 9%
solv. ethyl acetate, t 20 min
  O2 evolution V(O2) (Vmax(O2)*100%): 9%
solv. ethyl acetate, t 25 min
  O2 evolution V(O2) (Vmax(O2)*100%): 9%
solv. ethyl acetate, t 30 min
  O2 evolution V(O2) (Vmax(O2)*100%): 9%
solv. ethyl acetate, t 35 min
  O2 evolution V(O2) (Vmax(O2)*100%): 9%
solv. ethyl acetate, t 50 min
  O2 evolution V(O2) (Vmax(O2)*100%): 9%
solv. ethyl acetate, t 60 min
  O2 evolution V(O2) (Vmax(O2)*100%): 9%
solv. ethyl acetate, t 70 min
  O2 evolution V(O2) (Vmax(O2)*100%): 9%
solv. ethyl acetate, t 80 min
  O2 evolution V(O2) (Vmax(O2)*100%): 9%
solv. methanol, t 1 min
  O2 evolution V(O2) (Vmax(O2)*100%): 1%
solv. methanol, t 4 min
  O2 evolution V(O2) (Vmax(O2)*100%): 2%
solv. methanol, t 5 min
  O2 evolution V(O2) (Vmax(O2)*100%): 2%
solv. methanol, t 10 min
  O2 evolution V(O2) (Vmax(O2)*100%): 2%
solv. methanol, t 15 min
  O2 evolution V(O2) (Vmax(O2)*100%): 2%
solv. methanol, t 20 min
  O2 evolution V(O2) (Vmax(O2)*100%): 2%
solv. methanol, t 25 min
  O2 evolution V(O2) (Vmax(O2)*100%): 2%
solv. methanol, t 30 min
  O2 evolution V(O2) (Vmax(O2)*100%): 2%
solv. methanol, t 35 min
  O2 evolution V(O2) (Vmax(O2)*100%): 2%
solv. methanol, t 50 min
  O2 evolution V(O2) (Vmax(O2)*100%): 2%
solv. methanol, t 60 min
  O2 evolution V(O2) (Vmax(O2)*100%): 2%
solv. methanol, t 70 min
  O2 evolution V(O2) (Vmax(O2)*100%): 2%
solv. methanol, t 80 min
  O2 evolution V(O2) (Vmax(O2)*100%): 2%
solv. t-butanol, t 1 min
  O2 evolution V(O2) (Vmax(O2)*100%): 0%
solv. t-butanol, t 4 min
  O2 evolution V(O2) (Vmax(O2)*100%): 0%
solv. t-butanol, t 5 min
  O2 evolution V(O2) (Vmax(O2)*100%): 0%
solv. t-butanol, t 10 min
  O2 evolution V(O2) (Vmax(O2)*100%): 0%
solv. t-butanol, t 15 min
  O2 evolution V(O2) (Vmax(O2)*100%): 0%
solv. t-butanol, t 20 min
  O2 evolution V(O2) (Vmax(O2)*100%): 0%
solv. t-butanol, t 25 min
  O2 evolution V(O2) (Vmax(O2)*100%): 0%
solv. t-butanol, t 30 min
  O2 evolution V(O2) (Vmax(O2)*100%): 0%
solv. t-butanol, t 35 min
  O2 evolution V(O2) (Vmax(O2)*100%): 0%
solv. t-butanol, t 50 min
  O2 evolution V(O2) (Vmax(O2)*100%): 0%
solv. t-butanol, t 60 min
  O2 evolution V(O2) (Vmax(O2)*100%): 0%
solv. t-butanol, t 70 min
  O2 evolution V(O2) (Vmax(O2)*100%): 0%
solv. t-butanol, t 80 min
  O2 evolution V(O2) (Vmax(O2)*100%): 0%
